Test: Paramagnetic relaxation properties in water at 10 MHz (0.15T), RADX spin analyzer
Assay type: physicochemical
Settings: 0.94 mM solution in water, 10 MHz (0.15T), 37°C, triplicate, mean +/- SD
Description: The paramagnetic relaxation properties of [manganese(II)·(H₂O)₂·(L-alanine)₂]⁺²(Cl₂)⁻² in water were measured at 10 MHz (0.15T) with a spin analyzer (RADX; Houston, TX) at 37°C. After thermal equilibrium, the spin-lattice (T₁) and spin-spin (T₂) relaxation values were measured in triplicate.
The paramagnetic relaxation of the title compound in water was measured at 10 MHz (0.15T) with a spin analyzer (RADX; Houston, TX). After thermal equilibrium, the spin-lattice (T₁) and spin-spin (T₂) relaxation values were measured.
Relaxivity was measured at 10 MHz (0.15T) as described in Example 10.
The relaxivity of the title compound was performed at 0.15 T (10 MHz) with a RADX Spin Analyzer (Houston, TX) at 37°C.

spin-lattice (T₁) relaxation value	spin-spin (T₂) relaxation value	SMILES
117 ± 5 ms	29 ± 1 ms	NC(=O)C[C@H]([NH3+])C(=O)[O-].NC(=O)C[C@H]([NH3+])C(=O)[O-].O.O.[Cl-].[Cl-].[Mn+2] [Manganese(II)·(H₂O)₂·(L-asparginine)₂]⁺²(Cl₂)⁻²]

Same assay, conditions: 0.95 mM solution in water, 10 MHz (0.15T), 37°C, triplicate, mean +/- SD

spin-lattice (T₁) relaxation value	spin-spin (T₂) relaxation value	SMILES
108 ± 3 ms	27 ± 0 ms	NC(=O)CC[C@H](N)C(=O)O.NC(=O)CC[C@H](N)C(=O)O.O.O.[Cl-].[Cl-].[Mn+2] [[Manganese(II)·(H₂O)₂·(L-glutamine)₂]⁺²(Cl₂)⁻²]
107 ± 5 ms	27 ± 1 ms	N[C@@H](Cc1ccccc1)C(=O)O.N[C@@H](Cc1ccccc1)C(=O)O.O.O.[Cl-].[Cl-].[Mn+2] [[Manganese(II)·(H₂O)₂·(L-phenylalanine)₂]⁺²(Cl₂)⁻²]

Same assay, conditions: in water, 10 MHz (0.15T); calculated from T₁ and concentration

millimolar relaxivity for T₁	SMILES
9.75 mM⁻¹ s⁻¹	NC(=O)CC[C@H](N)C(=O)O.NC(=O)CC[C@H](N)C(=O)O.O.O.[Cl-].[Cl-].[Mn+2] [[Manganese(II)·(H₂O)₂·(L-glutamine)₂]⁺²(Cl₂)⁻²]
9.09 mM⁻¹ s⁻¹	NC(=O)C[C@H]([NH3+])C(=O)[O-].NC(=O)C[C@H]([NH3+])C(=O)[O-].O.O.[Cl-].[Cl-].[Mn+2] [Manganese(II)·(H₂O)₂·(L-asparginine)₂]⁺²(Cl₂)⁻²]
9.84 mM⁻¹ s⁻¹	N[C@@H](Cc1ccccc1)C(=O)O.N[C@@H](Cc1ccccc1)C(=O)O.O.O.[Cl-].[Cl-].[Mn+2] [[Manganese(II)·(H₂O)₂·(L-phenylalanine)₂]⁺²(Cl₂)⁻²]

Same assay, conditions: in water, 10 MHz (0.15T); calculated from T₂ and concentration

millimolar relaxivity for T₂	SMILES
39.0 mM⁻¹ s⁻¹	NC(=O)CC[C@H](N)C(=O)O.NC(=O)CC[C@H](N)C(=O)O.O.O.[Cl-].[Cl-].[Mn+2] [[Manganese(II)·(H₂O)₂·(L-glutamine)₂]⁺²(Cl₂)⁻²]
36.7 mM⁻¹ s⁻¹	NC(=O)C[C@H]([NH3+])C(=O)[O-].NC(=O)C[C@H]([NH3+])C(=O)[O-].O.O.[Cl-].[Cl-].[Mn+2] [Manganese(II)·(H₂O)₂·(L-asparginine)₂]⁺²(Cl₂)⁻²]
39.0 mM⁻¹ s⁻¹	N[C@@H](Cc1ccccc1)C(=O)O.N[C@@H](Cc1ccccc1)C(=O)O.O.O.[Cl-].[Cl-].[Mn+2] [[Manganese(II)·(H₂O)₂·(L-phenylalanine)₂]⁺²(Cl₂)⁻²]

Test: Paramagnetic relaxation properties in human plasma at 37°C
Assay type: physicochemical
Settings: 90 µM final concentration, 37°C

T₂ value	SMILES
188 ± 8 ms	NC(=O)CC[C@H](N)C(=O)O.NC(=O)CC[C@H](N)C(=O)O.O.O.[Cl-].[Cl-].[Mn+2] [[Manganese(II)·(H₂O)₂·(L-glutamine)₂]⁺²(Cl₂)⁻²]
190 ± 3 ms	NC(=O)C[C@H]([NH3+])C(=O)[O-].NC(=O)C[C@H]([NH3+])C(=O)[O-].O.O.[Cl-].[Cl-].[Mn+2] [Manganese(II)·(H₂O)₂·(L-asparginine)₂]⁺²(Cl₂)⁻²]
186 ± 7 ms	N[C@@H](Cc1ccccc1)C(=O)O.N[C@@H](Cc1ccccc1)C(=O)O.O.O.[Cl-].[Cl-].[Mn+2] [[Manganese(II)·(H₂O)₂·(L-phenylalanine)₂]⁺²(Cl₂)⁻²]

Same assay, conditions: 90 µM final concentration, 37°C, triplicate

T₁ value	SMILES
251 ± 18 ms	NC(=O)CC[C@H](N)C(=O)O.NC(=O)CC[C@H](N)C(=O)O.O.O.[Cl-].[Cl-].[Mn+2] [[Manganese(II)·(H₂O)₂·(L-glutamine)₂]⁺²(Cl₂)⁻²]
244 ± 20 ms	NC(=O)C[C@H]([NH3+])C(=O)[O-].NC(=O)C[C@H]([NH3+])C(=O)[O-].O.O.[Cl-].[Cl-].[Mn+2] [Manganese(II)·(H₂O)₂·(L-asparginine)₂]⁺²(Cl₂)⁻²]
240 ± 10 ms	N[C@@H](Cc1ccccc1)C(=O)O.N[C@@H](Cc1ccccc1)C(=O)O.O.O.[Cl-].[Cl-].[Mn+2] [[Manganese(II)·(H₂O)₂·(L-phenylalanine)₂]⁺²(Cl₂)⁻²]

Same assay, conditions: 37°C

R₁	R₂	SMILES
44.3 mM⁻¹ s⁻¹	59.1 mM⁻¹ s⁻¹	NC(=O)CC[C@H](N)C(=O)O.NC(=O)CC[C@H](N)C(=O)O.O.O.[Cl-].[Cl-].[Mn+2] [[Manganese(II)·(H₂O)₂·(L-glutamine)₂]⁺²(Cl₂)⁻²]
45.5 mM⁻¹ s⁻¹	58.5 mM⁻¹ s⁻¹	NC(=O)C[C@H]([NH3+])C(=O)[O-].NC(=O)C[C@H]([NH3+])C(=O)[O-].O.O.[Cl-].[Cl-].[Mn+2] [Manganese(II)·(H₂O)₂·(L-asparginine)₂]⁺²(Cl₂)⁻²]
46.3 mM⁻¹ s⁻¹	59.7 mM⁻¹ s⁻¹	N[C@@H](Cc1ccccc1)C(=O)O.N[C@@H](Cc1ccccc1)C(=O)O.O.O.[Cl-].[Cl-].[Mn+2] [[Manganese(II)·(H₂O)₂·(L-phenylalanine)₂]⁺²(Cl₂)⁻²]

Same assay, conditions: 37°C, repeat measurement 80 minutes later

T₁ changed by (repeat measurement)	T₂ changed by (repeat measurement)	SMILES
5%	did not change	NC(=O)CC[C@H](N)C(=O)O.NC(=O)CC[C@H](N)C(=O)O.O.O.[Cl-].[Cl-].[Mn+2] [[Manganese(II)·(H₂O)₂·(L-glutamine)₂]⁺²(Cl₂)⁻²]
7%	2%	NC(=O)C[C@H]([NH3+])C(=O)[O-].NC(=O)C[C@H]([NH3+])C(=O)[O-].O.O.[Cl-].[Cl-].[Mn+2] [Manganese(II)·(H₂O)₂·(L-asparginine)₂]⁺²(Cl₂)⁻²]
2%	2%	N[C@@H](Cc1ccccc1)C(=O)O.N[C@@H](Cc1ccccc1)C(=O)O.O.O.[Cl-].[Cl-].[Mn+2] [[Manganese(II)·(H₂O)₂·(L-phenylalanine)₂]⁺²(Cl₂)⁻²]

Same assay, conditions: versus GdDTPA

T₂ relaxivity in plasma, fold greater than GdDTPA	SMILES
12.3 fold	NC(=O)CC[C@H](N)C(=O)O.NC(=O)CC[C@H](N)C(=O)O.O.O.[Cl-].[Cl-].[Mn+2] [[Manganese(II)·(H₂O)₂·(L-glutamine)₂]⁺²(Cl₂)⁻²]
12.2 fold	NC(=O)C[C@H]([NH3+])C(=O)[O-].NC(=O)C[C@H]([NH3+])C(=O)[O-].O.O.[Cl-].[Cl-].[Mn+2] [Manganese(II)·(H₂O)₂·(L-asparginine)₂]⁺²(Cl₂)⁻²]
12.4 fold	N[C@@H](Cc1ccccc1)C(=O)O.N[C@@H](Cc1ccccc1)C(=O)O.O.O.[Cl-].[Cl-].[Mn+2] [[Manganese(II)·(H₂O)₂·(L-phenylalanine)₂]⁺²(Cl₂)⁻²]

Same assay, conditions: versus gadolinium diethylenetriaminepentaacetic acid chelate (GdDTPA)

T₁ relaxivity in plasma, fold greater than GdDTPA	SMILES
9.2 fold	NC(=O)CC[C@H](N)C(=O)O.NC(=O)CC[C@H](N)C(=O)O.O.O.[Cl-].[Cl-].[Mn+2] [[Manganese(II)·(H₂O)₂·(L-glutamine)₂]⁺²(Cl₂)⁻²]
9.5 fold	NC(=O)C[C@H]([NH3+])C(=O)[O-].NC(=O)C[C@H]([NH3+])C(=O)[O-].O.O.[Cl-].[Cl-].[Mn+2] [Manganese(II)·(H₂O)₂·(L-asparginine)₂]⁺²(Cl₂)⁻²]
9.65 fold	N[C@@H](Cc1ccccc1)C(=O)O.N[C@@H](Cc1ccccc1)C(=O)O.O.O.[Cl-].[Cl-].[Mn+2] [[Manganese(II)·(H₂O)₂·(L-phenylalanine)₂]⁺²(Cl₂)⁻²]

Source: EP0308983A2, “NMR imaging with Mn(II) coordination compositions” (priority 1987, dated 1989)
